Experimental data as given in publication PMC4780272, “New Concept of the Biosynthesis of 4-Alkyl-L-Proline Precursors of Lincomycin, Hormaomycin, and Pyrrolobenzodiazepines: Could a γ-Glutamyltransferase Cleave the C–C Bond?” (Frontiers in Microbiology, 2016).

Target: T1, LmbW (Streptomyces lincolnensis, UniProt A9Y8T3)
T1 construct: gene SLINC_0255; lmbW amplified from LK6 cosmid, cloned in pET42b(+), produced in E. coli BL21(DE3), purified as described for LmbC
T1 sequence (A9Y8T3 1-350): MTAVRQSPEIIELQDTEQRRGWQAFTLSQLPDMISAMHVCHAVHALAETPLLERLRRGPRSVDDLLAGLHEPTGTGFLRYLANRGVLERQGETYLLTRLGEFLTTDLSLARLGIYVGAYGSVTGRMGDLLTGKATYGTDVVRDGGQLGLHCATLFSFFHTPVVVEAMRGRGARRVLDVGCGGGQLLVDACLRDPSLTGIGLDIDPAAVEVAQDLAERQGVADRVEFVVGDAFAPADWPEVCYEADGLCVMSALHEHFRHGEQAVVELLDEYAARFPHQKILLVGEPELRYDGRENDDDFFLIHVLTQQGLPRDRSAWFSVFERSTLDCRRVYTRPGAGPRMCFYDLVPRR
Test: LC-MS of methylated product
Format: biochemical
Conditions: methyl donor; co-substrate 3 4 mM, S-adenosylmethionine 4 mM, glycine buffer 40 mM pH 9.5, 28°C, 1 h

Compound: C[S+](CC[C@H](N)C(=O)O)C[C@H]1O[C@@H](n2cnc3c(N)ncnc32)[C@H](O)[C@@H]1O (stereo partly shown) [S-adenosylmethionine]
- LC-MS of methylated product: In the reaction with LmbW and S-adenosylmethionine, we identified a product
